Laboratory results as given in patent publication US8569336B2, “Compounds for the treatment of inflammatory disorders” (priority 2008, dated 2013).
pIC50, pKi: −log10 of the molar value. Read-outs that look alike come from different tables or passages of the source.

Experiments:
[1] = test system: TNF-α production from human whole blood; test: Inhibition of TNF-α production from human whole blood (hWBA), LPS stimulated, ELISA; assay type: cell-based; details: Homo sapiens, TNF-α by ELISA, read-out: hWBA (IC50)
[2] = Area under the curve determinations of plasma levels in rats (rrAUC), oral 10 mg/kg; assay type: in vivo; details: rat, read-out: RR AUC (rapid rat AUC, rrAUC)
[3] = biological target: T1, purified catalytic domain of recombinant human TACE (rhTACEc) (Homo sapiens, UniProt P78536, N452Q/S266A); test: TACE kinetic assay: cleavage of internally quenched peptide substrate TNF-FRET 2 (Ki); assay type: biochemical; details: TNF-FRET 2 substrate
T1 construct: 6xHis (C); made in house; host or cells: baculovirus/Hi5 insect cells

[4] = 3.5 h, human whole blood diluted 1:1, LPS stimulated, 3.5 h
[5] = LPS-stimulated human whole blood
[6] = human whole blood diluted 1:1, LPS stimulated
[7] = plasma, blood collected 0.5-6 h post-dosing

T1 sequence (P78536 215-477 S266A/N452Q): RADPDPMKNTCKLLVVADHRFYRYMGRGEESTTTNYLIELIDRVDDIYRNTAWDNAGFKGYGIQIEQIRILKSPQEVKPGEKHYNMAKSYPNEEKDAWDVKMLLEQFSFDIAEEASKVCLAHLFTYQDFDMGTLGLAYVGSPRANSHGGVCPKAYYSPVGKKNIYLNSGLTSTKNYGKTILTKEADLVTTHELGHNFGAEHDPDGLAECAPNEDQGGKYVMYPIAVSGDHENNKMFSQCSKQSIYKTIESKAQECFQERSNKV

## COc1ccc2c(c1)C(=O)N(C[C@@]1(c3cc4cnc(-c5ccccc5F)cc4o3)NC(=O)NC1=O)C2 [Compound 2234]
[1]; [4]
  pIC50: 4.84
[2]; plasma 0.5-6 h post-dosing
  AUC: 127 µM·h
[3]; read-out: Ki
  pKi: 9.28

## COc1ccc2c(c1F)C(=O)N(C[C@@]1(c3cc4cc(C)ncc4o3)NC(=O)NC1=O)C2 [Compound 305]
[1]; [5]
  pIC50: 6.62
[2]; plasma 0.5-6 h
  AUC: 19.1 µM·h
[3]; read-out: Ki
  pKi: 9.19

## COc1ccc2c(c1)C(=O)N(C[C@@]1(c3cc4cc(N)ccc4o3)NC(=O)NC1=O)C2 [Compound 2226]
[1]; [4]
  pIC50: 6.24
[2]; plasma 0.5-6 h post-dosing
  AUC: 0.467 µM·h
[3]; read-out: Ki
  pKi: 9.09

## COc1ccc2c(c1)C(=O)N(C[C@@]1(c3cc4nc(N5CCC[C@@H](O)C5)ccc4o3)NC(=O)NC1=O)C2 [Compound 2170]
[1]; [4]
  pIC50: 6.72
[2]; plasma 0.5-6 h post-dosing
  AUC: 0.414 µM·h
[3]; Ki
  pKi: 9.38

## COc1ccc2c(c1F)C(=O)N(C[C@@]1(c3cc4ncc(C(=O)NC5CC5)cc4o3)NC(=O)NC1=O)C2 [Compound 1909]
[1]; [5]
  pIC50: 6.23
[2]; plasma 0.5-6 h
  AUC: 0.066 µM·h
[3]; read-out: Ki
  pKi: 8.94

## COc1ccc2c(c1)C(=O)N(C[C@@]1(c3cc4nc(-n5ccnc5)ccc4o3)NC(=O)NC1=O)C2 [Compound 2164]
[1]; [4]
  pIC50: 6.77
[2]; plasma 0.5-6 h post-dosing
  AUC: 0.534 µM·h
[3]; read-out: Ki
  pKi: 9.25

## COc1ccc2c(c1)C(=O)N(C[C@@]1(c3cc4cc(C(=O)N5CCN(C)CC5)ccc4o3)NC(=O)NC1=O)C2 [Compound 2426]
[1]; [6]
  pIC50: 6.07
[2]; [7]
  AUC: 0.057 µM·h
[3]; Ki
  pKi: 8.90

## COc1ccc2c(c1)C(=O)N(C[C@@]1(c3cc4c(N5CCOCC5)nccc4o3)NC(=O)NC1=O)C2 [Compound 2281]
[1]; [6]
  pIC50: 6.29
[2]; [7]
  AUC: 0.749 µM·h
[3]; read-out: Ki
  pKi: 9.34

## COc1ccc2c(c1)C(=O)N(C[C@@]1(c3cc4cc(NC(=O)N(C)C)ccc4o3)NC(=O)NC1=O)C2 [Compound 2228]
[1]; [4]
  pIC50: 5.62
[2]; plasma 0.5-6 h post-dosing
  AUC: 0.129 µM·h
[3]; read-out: Ki
  pKi: 9.08

## COc1ccc2c(c1F)C(=O)N(C[C@@]1(c3cc4cc5c(cc4o3)C(=O)NCC5)NC(=O)NC1=O)C2 [Compound 2491]
[1]; [6]
  pIC50: 6.96
[2]; [7]
  AUC: 0.972 µM·h
[3]; read-out: Ki
  pKi: 9.71

## COc1ccc2c(c1)C(=O)N(C[C@@]1(c3cc4c(-c5cccnc5)nccc4o3)NC(=O)NC1=O)C2 [Compound 2235]
[1]; [4]
  pIC50: 6.26
[2]; plasma 0.5-6 h post-dosing
  AUC: 0.018 µM·h
[3]; read-out: Ki
  pKi: 9.42

## COc1ccc2c(c1F)C(=O)N(C[C@@]1(c3cc4nc(Nc5ccc(-c6cn[nH]c6)cn5)ccc4o3)NC(=O)NC1=O)C2 [Compound 1734]
[1]; [5]
  pIC50: 6.54
[2]; plasma 0.5-6 h
  AUC: 0.068 µM·h
[3]; read-out: Ki
  pKi: 8.72
